# From ChEMBL document CHEMBL1201862, “PubChem BioAssay data set” (2004)
#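 In this assay, cells in 96-well plates receive the compound at five concentrations for 48 hours. Endpoints are linearly interpolated between the surrounding concentrations. The concentration for 50% growth inhibition is given as GI50.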 The source made the active and inactive calls. No stated cut-off is given here; in the data, active = GI50 up to about 1.1 µM and inactive = higher. Where a SMILES comes first, the peptide text is derived from it. The star is where a group is joined. Boc = CC(C)(C)OC(=O)*; OSu = O=C1CCC(=O)N1O*
# How the values were obtained:
# Assay in all cases: inhibition of tumour cell growth, NCI panel, 48 h
# [1] = test system: 786-0
# [2] = test system: A498
# [3] = test system: ACHN
# [4] = test system: BT-549
# [5] = test system: CAKI-1
# [6] = test system: DU-145
# [7] = test system: EKVX
# [8] = test system: HCT-116
# [9] = test system: LOX IMVI
# [10] = test system: MDA-N
# [11] = test system: MOLT-4
# [12] = test system: NCI-H226
# [13] = test system: OVCAR-5
# [14] = test system: SF-539
# [15] = test system: SN12C
# [16] = test system: SNB-19
# [17] = test system: SW-620
# [18] = test system: UACC-62
# [19] = test system: SR
# [20] = test system: NCI-H522
Compound,GI50 [1],GI50 [2],GI50 [3],GI50 [4],GI50 [5],GI50 [6],GI50 [7],GI50 [8],GI50 [9],GI50 [10],GI50 [11],GI50 [12],GI50 [13],GI50 [14],GI50 [15],GI50 [16],GI50 [17],GI50 [18],GI50 [19],GI50 [20]
CCCCOC(=O)C1CN2C=CC=NC2=NC1(C(F)(F)F)C(F)(F)F (stereo not given),> 100 µM (inactive),> 100 µM (inactive),> 100 µM (inactive),> 100 µM (inactive),> 100 µM (inactive),> 100 µM (inactive),72.6 µM (inactive),> 100 µM (inactive),> 100 µM (inactive),> 100 µM (inactive),> 100 µM (inactive),> 100 µM (inactive),> 100 µM (inactive),> 100 µM (inactive),> 100 µM (inactive),> 100 µM (inactive),> 100 µM (inactive),> 100 µM (inactive),–,–
CC(C)(C)OC(=O)NC(Cc1ccc(O)cc1)C(=O)NC(CCCCN)C(=O)NC(Cc1ccc(O)cc1)C(=O)NC(CCCCN)C(=O)ON1C(=O)CCC1=O (stereo not given) (Boc-YKYK-OSu; configuration not given here),> 100 µM (inactive),> 100 µM (inactive),> 100 µM (inactive),> 100 µM (inactive),–,–,> 100 µM (inactive),> 100 µM (inactive),–,> 100 µM (inactive),> 100 µM (inactive),> 100 µM (inactive),> 100 µM (inactive),–,> 100 µM (inactive),> 100 µM (inactive),> 100 µM (inactive),> 100 µM (inactive),> 100 µM (inactive),–
C[N+]1(CCCl)CC[N+](C)(CCCl)CC1 (stereo not given),> 100 µM (inactive),> 100 µM (inactive),> 100 µM (inactive),> 100 µM (inactive),> 100 µM (inactive),> 100 µM (inactive),> 100 µM (inactive),> 100 µM (inactive),> 100 µM (inactive),> 100 µM (inactive),83.6 µM (inactive),> 100 µM (inactive),> 100 µM (inactive),> 100 µM (inactive),> 100 µM (inactive),> 100 µM (inactive),> 100 µM (inactive),> 100 µM (inactive),–,–
CCOC(=O)CCc1cn2cc(Br)nc(OC)c2n1,> 100 µM (inactive),–,–,> 100 µM (inactive),> 100 µM (inactive),51.6 µM (inactive),> 100 µM (inactive),14.8 µM (inactive),90.2 µM (inactive),3.1 µM (inactive),13.3 µM (inactive),> 100 µM (inactive),–,50.5 µM (inactive),75.9 µM (inactive),> 100 µM (inactive),16.2 µM (inactive),36 µM (inactive),72.6 µM (inactive),81.8 µM (inactive)
CN(C)CCNC1=C(Cl)C(=O)c2c(O)ccc(O)c2C1=O,2.08 µM (inactive),3.39 µM (inactive),3.5 µM (inactive),1.72 µM (inactive),–,1.94 µM (inactive),2.97 µM (inactive),1.91 µM (inactive),–,2.59 µM (inactive),2.88 µM (inactive),23.6 µM (inactive),1.74 µM (inactive),1.73 µM (inactive),1.89 µM (inactive),1.95 µM (inactive),2.02 µM (inactive),1.85 µM (inactive),–,1.79 µM (inactive)
CCCCCC(=O)OCC(=O)[C@H]1[C@H](C)C[C@H]2[C@@H]3C[C@H](F)C4=C/C(=N/OC(=O)c5cccc6c(=O)c7ccccc7[nH]c56)C=C[C@]4(C)[C@H]3[C@@H](O)C[C@@]21C,48.3 µM (inactive),–,19.9 µM (inactive),16.5 µM (inactive),41.8 µM (inactive),39.4 µM (inactive),25.5 µM (inactive),26.4 µM (inactive),17.6 µM (inactive),28.3 µM (inactive),17.8 µM (inactive),4.78 µM (inactive),32.8 µM (inactive),23.9 µM (inactive),20 µM (inactive),37.3 µM (inactive),28.2 µM (inactive),16.7 µM (inactive),21.5 µM (inactive),14.3 µM (inactive)
O=C1C(Cl)=C(NCCN2CCOCC2)C(=O)c2c(O)ccc(O)c21,2.01 µM (inactive),6.62 µM (inactive),2.7 µM (inactive),2.24 µM (inactive),1.74 µM (inactive),1.71 µM (inactive),4.9 µM (inactive),1.55 µM (inactive),1.33 µM (inactive),1.9 µM (inactive),1.54 µM (inactive),9.95 µM (inactive),1 µM (active),1.75 µM (inactive),1.79 µM (inactive),1.81 µM (inactive),1.33 µM (inactive),1.48 µM (inactive),–,–
CC(C)CN1CN(c2ccccc2)C2(CCN(CC(C)(c3ccc(F)cc3)C3OCCO3)CC2)C1=O (stereo not given),3.12 µM (inactive),–,4.16 µM (inactive),6.56 µM (inactive),12.1 µM (inactive),4.1 µM (inactive),6.01 µM (inactive),4.51 µM (inactive),2.08 µM (inactive),6.84 µM (inactive),2.4 µM (inactive),11.1 µM (inactive),13 µM (inactive),5.18 µM (inactive),5.75 µM (inactive),7.21 µM (inactive),3.17 µM (inactive),6.92 µM (inactive),2.77 µM (inactive),3.96 µM (inactive)
CSCCC(NC(=O)Cc1ccc(C(=O)c2ccccc2)cc1)C(=O)O (stereo not given),> 100 µM (inactive),> 100 µM (inactive),> 100 µM (inactive),> 100 µM (inactive),> 100 µM (inactive),> 100 µM (inactive),> 100 µM (inactive),> 100 µM (inactive),> 100 µM (inactive),> 100 µM (inactive),> 100 µM (inactive),> 100 µM (inactive),> 100 µM (inactive),> 100 µM (inactive),> 100 µM (inactive),> 100 µM (inactive),> 100 µM (inactive),> 100 µM (inactive),–,> 100 µM (inactive)
O=C1c2ccccc2/C(=N\c2ccc3ccccc3c2)C1(C1=C(c2ccccc2)/C(=N/c2ccc3ccccc3c2)c2ccccc21)c1ccccc1 (stereo not given),4.8 µM (inactive),> 10 µM (inactive),2.53 µM (inactive),5.62 µM (inactive),7.53 µM (inactive),5.57 µM (inactive),28.8 µM (inactive),3.85 µM (inactive),4.01 µM (inactive),3.89 µM (inactive),2.58 µM (inactive),7.21 µM (inactive),> 57.8 µM (inactive),6.15 µM (inactive),9.48 µM (inactive),73.3 µM (inactive),36.6 µM (inactive),5.15 µM (inactive),–,5.4 µM (inactive)
CN(c1ccccc1)S(=O)(=O)c1ccccc1[N+](=O)[O-],> 100 µM (inactive),–,> 100 µM (inactive),75.2 µM (inactive),> 100 µM (inactive),> 100 µM (inactive),> 100 µM (inactive),97.5 µM (inactive),> 100 µM (inactive),> 100 µM (inactive),26.2 µM (inactive),> 100 µM (inactive),> 100 µM (inactive),> 100 µM (inactive),> 100 µM (inactive),> 100 µM (inactive),> 100 µM (inactive),> 100 µM (inactive),81.3 µM (inactive),64.3 µM (inactive)
O=C1C2CCCCC2C(=O)N1n1c(-c2ccccc2)n[nH]c1=O (stereo not given),> 100 µM (inactive),> 100 µM (inactive),> 100 µM (inactive),> 100 µM (inactive),> 100 µM (inactive),–,> 100 µM (inactive),> 100 µM (inactive),> 100 µM (inactive),> 100 µM (inactive),> 100 µM (inactive),> 100 µM (inactive),> 100 µM (inactive),> 100 µM (inactive),> 100 µM (inactive),> 100 µM (inactive),> 100 µM (inactive),> 100 µM (inactive),> 100 µM (inactive),> 100 µM (inactive)
Cc1c2ccccc2c(C)n2c1nc1cc3ccccc3cc12,0.955 µM (active),–,0.783 µM (active),1.84 µM (inactive),1.24 µM (inactive),1.3 µM (inactive),1.64 µM (inactive),1.37 µM (inactive),–,1.47 µM (inactive),1.32 µM (inactive),–,1.02 µM (active),1.34 µM (inactive),1.79 µM (inactive),1.54 µM (inactive),1.56 µM (inactive),1.49 µM (inactive),0.721 µM (active),1.74 µM (inactive)
Cc1nc2c(=O)n(C)ncc2[nH]1,> 100 µM (inactive),> 100 µM (inactive),> 100 µM (inactive),> 100 µM (inactive),> 100 µM (inactive),> 100 µM (inactive),> 100 µM (inactive),> 100 µM (inactive),–,> 100 µM (inactive),> 100 µM (inactive),> 100 µM (inactive),> 100 µM (inactive),> 100 µM (inactive),> 100 µM (inactive),> 100 µM (inactive),> 100 µM (inactive),> 100 µM (inactive),> 100 µM (inactive),–
c1ccc(NN=C(c2ccccn2)c2ccccn2)nc1,0.142 µM (active),0.447 µM (active),0.159 µM (active),6.18 µM (inactive),0.0757 µM (active),0.331 µM (active),0.335 µM (active),0.0785 µM (active),0.269 µM (active),0.533 µM (active),–,0.285 µM (active),0.794 µM (active),1.71 µM (inactive),0.142 µM (active),0.598 µM (active),0.141 µM (active),0.153 µM (active),–,< 0.01 µM (active)
